Legend:
Kidney Fibroblast = experiment: MTT proliferation assay, mouse kidney fibroblast; type: cell-based
Description: Cell proliferation was measured by MTT assay. DMEM with 10% fetal serum was used as cell culture medium. The cells were prepared in suspension (1×10^5/ml), and 100 μL of the suspension was transferred to each well of a 96 wells plate. Once the cells were attached to the plastic, the culture was changed to serum free medium and continued for another 24 hours. The serum free medium was aspirated, and various concentrations of 1-(3′-fluorophenyl)-5-methyl-2(1H)-pyridone (AKF-PD) 1-(3′-bromophenyl)-5-methyl-2(1H)-pyridone (AKF-BR) or PIRFENIDONE (PFD) in 10% serum medium were added into each well with 5 replicates for each concentration. The cells were stained with MTT (10 μL per well) at 24, 48, and 72 hours post drug treatment. After 4 hrs of incubation, the medium with MTT was aspirated from each well. One hundred μL MTT solvent was added to each well for 15 min. The dissolved MTT was then measured with a plate reader at 570 nm.

[1] = system: Rat Myocardiac Fibroblasts; experiment: MTT proliferation assay, rat myocardiac fibroblasts; type: cell-based
Description: (§1) In the following examples, myocardiac fibroblasts, skin scar forming fibroblast and human peritoneal mesothelial cells are primary cultures prepared according to common procedure. Other cells are commercially purchased. 1-(3-fluorophenyl)-5-methyl-2(1H)-pyridone (AKF-PD) is prepared as a suspension in 5% carboxymethylcellulose.
(§2) Cell proliferation was measured by MTT assay. DMEM with 10% fetal serum was used as cell culture medium. The cells were prepared in suspension (1×10^5/ml), and 100 μL of the suspension was transferred to each well of a 96 wells plate. Once the cells were attached to the plastic, the culture was changed to serum free medium and incubated for another 24 hours. Then, the serum free medium was aspirated, and various concentrations of 1-(3′-fluorophenyl)-5-methyl-2(1H)-pyridone (AKF-PD) or PIRFENIDONE (PFD) in 10% serum medium were added into each well with 5 replicates for each concentration. The cells were stained with MTT (10 μL per well) at 12, 24, or 48 hours post drug treatment. After 4 hrs of incubation, the medium with MTT was aspirated from each well. One hundred μL MTT solvent was added to each well for 15 min, and the dissolved MTT was measured with a plate reader at 570 nm.

Human Stellate Cells = experiment: MTT proliferation assay, human stellate cells; type: cell-based
Description: as §2, with “MTT was then measured with” for “MTT was measured with”

[2] = system: Human Skin Scar Forming Fibroblasts; experiment: MTT proliferation assay, human skin scar forming fibroblasts; type: cell-based
Description: as §1, §2

[3] = system: SD rat, renal interstitial fibrosis induced by surgical ligation of single side ureter; experiment: Rat ureter ligation model of renal interstitial fibrosis, AKF-PD vs PFD (Example 12); type: in vivo; settings: ureter-ligated rats; PFD 500 mg/kg/d, AKF-PD 500 mg/kg/d by gavage; 14 days post surgery
Description: Anti-fibrotic effect of AKF-PD was tested on a SD rat model for renal interstitial fibrosis induced by surgical ligation of single side ureter. Male SD rats (180 g˜220 g) were randomly divided into disease model group, PFD (500 mg/kg/d) group and AKF-PD (500 mg/kg/d) group. […] The respective drugs were administrated by gavage to rats in the groups of PFD and AKF-PD from one day prior to the procedure to 14 days post surgical procedure. Normal saline was administrated in a similar fashion to the rats in the groups of disease model. The animals were sacrificed 14 days after surgical procedure and their kidney were removed for pathological (HE staining) examination.

[4] = system: ICR mice injected with bleomycin; experiment: Bleomycin-induced mouse pulmonary fibrosis, histological score of lung tissue; type: in vivo; settings: AKF-PD and PFD 500 mg/kg, captopril 12.5 mg/kg by gavage day 1 to 28, Szapiel's method
Description: Under regular care condition, 7-10 weeks old, male, institute of cancer research (ICR) mice, weight 28-39 g, were randomly grouped as normal control, disease, disease/AKF-PD, disease/PFD and disease Captopril group.
Control group was injected with normal saline once day from day 2 to 15 days. Disease, disease/AKF-PD, disease/PFD and disease/captopril groups were injected with bleomycin once day from day 2 to 15. Control and disease groups were given 0.5% CMC by gavage once a day from day 1 to day 28. 500 mg/kg of AKF-PD CMC suspension and PD CMC suspension and 12.5 mg/kg captopril in saline were administered to respective groups by gavage once day from day 1 to day 28. All animals were sacrificed on day 29 and their lungs were removed for pathological (HE staining) examination.
Histological scoring for the lung tissue was done according Szapiel's method.

SMILES: Cc1ccc(=O)n(-c2cccc(F)c2)c1 [AKF-PD, 1-(3′-fluorophenyl)-5-methyl-2(1H)-pyridone]
- inhibition of proliferation of kidney fibroblast (Kidney Fibroblast): capable of inhibiting the proliferation of kidney fibroblast
- Optical Density at 570 nm (Kidney Fibroblast; 100 μg/ml, 24 h): 0.5907 ± 0.0199
- Optical Density at 570 nm (Kidney Fibroblast; 100 μg/ml, 48 h): 0.5850 ± 0.0134
- Optical Density at 570 nm (Kidney Fibroblast; 100 μg/ml, 72 h): 0.5080 ± 0.0145
- Optical Density at 570 nm (Kidney Fibroblast; 500 μg/ml, 24 h): 0.5799 ± 0.1086
- Optical Density at 570 nm (Kidney Fibroblast; 500 μg/ml, 48 h): 0.5185 ± 0.0331
- Optical Density at 570 nm (Kidney Fibroblast; 500 μg/ml, 72 h): 0.4314 ± 0.0264
- Optical Density at 570 nm (Kidney Fibroblast; 1000 μg/ml, 24 h): 0.5638 ± 0.0142
- Optical Density at 570 nm (Kidney Fibroblast; 1000 μg/ml, 48 h): 0.4298 ± 0.0258
- Optical Density at 570 nm (Kidney Fibroblast; 1000 μg/ml, 72 h): 0.3511 ± 0.0215
- order of inhibitory effect (Kidney Fibroblast; kidney fibroblast): AKF-PD>AKF-BR>pirfenidone
- Optical Density at 570 nm ([1]; 100 μg/ml, 12 h): 0.328 ± 0.010
- Optical Density at 570 nm ([1]; 100 μg/ml, 24 h): 0.426 ± 0.006
- Optical Density at 570 nm ([1]; 100 μg/ml, 48 h): 0.620 ± 0.018
- Optical Density at 570 nm ([1]; 500 μg/ml, 12 h): 0.326 ± 0.003
- Optical Density at 570 nm ([1]; 500 μg/ml, 24 h): 0.408 ± 0.009
- Optical Density at 570 nm ([1]; 500 μg/ml, 48 h): 0.580 ± 0.014
- Optical Density at 570 nm ([1]; 1000 μg/ml, 12 h): 0.332 ± 0.006
- Optical Density at 570 nm ([1]; 1000 μg/ml, 24 h): 0.392 ± 0.008
- Optical Density at 570 nm ([1]; 1000 μg/ml, 48 h): 0.538 ± 0.009
- Optical Density at 570 nm ([1]; 2500 μg/ml, 12 h): 0.325 ± 0.008
- Optical Density at 570 nm ([1]; 2500 μg/ml, 24 h): 0.377 ± 0.013
- Optical Density at 570 nm ([1]; 2500 μg/ml, 48 h): 0.514 ± 0.005
- anti-proliferative potency compared with PIRFENIDONE ([1]; rat myocardiac fibroblasts): more potent anti-proliferative agent than PIRFENIDONE
- Optical Density at 570 nm (Human Stellate Cells; 100 μg/ml, 12 h): 0.202 ± 0.001
- Optical Density at 570 nm (Human Stellate Cells; 100 μg/ml, 24 h): 0.366 ± 0.002
- Optical Density at 570 nm (Human Stellate Cells; 100 μg/ml, 48 h): 0.442 ± 0.006
- Optical Density at 570 nm (Human Stellate Cells; 500 μg/ml, 12 h): 0.202 ± 0.001
- Optical Density at 570 nm (Human Stellate Cells; 500 μg/ml, 24 h): 0.341 ± 0.003
- Optical Density at 570 nm (Human Stellate Cells; 500 μg/ml, 48 h): 0.406 ± 0.002
- Optical Density at 570 nm (Human Stellate Cells; 1000 μg/ml, 12 h): 0.198 ± 0.001
- Optical Density at 570 nm (Human Stellate Cells; 1000 μg/ml, 24 h): 0.312 ± 0.003
- Optical Density at 570 nm (Human Stellate Cells; 1000 μg/ml, 48 h): 0.385 ± 0.004
- Optical Density at 570 nm (Human Stellate Cells; 2500 μg/ml, 12 h): 0.195 ± 0.002
- Optical Density at 570 nm (Human Stellate Cells; 2500 μg/ml, 24 h): 0.273 ± 0.005
- Optical Density at 570 nm (Human Stellate Cells; 2500 μg/ml, 48 h): 0.246 ± 0.001
- anti-proliferative potency compared with PIRFENIDONE (Human Stellate Cells; human stellate cells): more potent anti-proliferative agent than PIRFENIDONE
- Optical Density at 570 nm ([2]; 100 μg/ml, 12 h): 0.192 ± 0.010
- Optical Density at 570 nm ([2]; 100 μg/ml, 24 h): 0.245 ± 0.002
- Optical Density at 570 nm ([2]; 100 μg/ml, 48 h): 0.366 ± 0.006
- Optical Density at 570 nm ([2]; 500 μg/ml, 12 h): 0.192 ± 0.006
- Optical Density at 570 nm ([2]; 500 μg/ml, 24 h): 0.238 ± 0.004
- Optical Density at 570 nm ([2]; 500 μg/ml, 48 h): 0.345 ± 0.007
- Optical Density at 570 nm ([2]; 1000 μg/ml, 12 h): 0.192 ± 0.009
- Optical Density at 570 nm ([2]; 1000 μg/ml, 24 h): 0.221 ± 0.004
- Optical Density at 570 nm ([2]; 1000 μg/ml, 48 h): 0.323 ± 0.009
- Optical Density at 570 nm ([2]; 2500 μg/ml, 12 h): 0.190 ± 0.002
- Optical Density at 570 nm ([2]; 2500 μg/ml, 24 h): 0.198 ± 0.008
- Optical Density at 570 nm ([2]; 2500 μg/ml, 48 h): 0.267 ± 0.001
- anti-proliferative potency compared with PIRFENIDONE ([2]; human skin fibroblasts): more potent anti-proliferative agent than PIRFENIDONE
- Histological Score for Interstitial Compartment [3]: 7.11 ± 1.38
- Histological Score for Lung Tissue, Mean [4]: 2.0000

— patent US20090005424A9, “Composition and Method for Treating Fibrotic Diseases” (priority 2005, published 2009)
